Assay results taken from US20240245793A1, “PSD-95 INHIBITORS AND USES THEREOF” (priority 2021, published 2024).
Like-named read-outs stand apart in the source and are kept apart here.

How the values were obtained:
[1] = target: T1, plasmin (Homo sapiens, UniProt P00747); assay: In vitro plasmin stability assay; format: in vitro ADME
T1 construct: Tissue plasminogen factor (tPA), which generates plasmin from plasminogen
Method: (§1) At selected time points during the incubation, the ligands were extracted from 80 μL of assay matrix by treatment with 80 μL of 50% acetonitrile (ACN). The samples were filtered and analysed by UPLC to determine the amount of ligand remaining. LC-MS analysis was performed to confirm ligand integrity and identify cleavage sites.

[2] = In vitro plasma stability in undiluted pooled human plasma; format: in vitro ADME; settings: for T1/2: 100 μM ligand, 37° C., mean ± SEM (Table 13, FIG. 10); for half-life at 100 μM: human
Method: as §1, with “the” for “80 μL of”, “adding assay matrix to 6M Urea followed by precipitation using 20% TCA in acetone. After overnight incubation, the” for “treatment with 80 μL of 50% acetonitrile (ACN). The”

[3] = target: PDZ1-2 of PSD-95 (Homo sapiens, UniProt P78352); assay: Fluorescence polarization (FP) competition assay, affinity to PDZ1-2 of PSD-95; format: binding; settings: mean ± SEM
Method: First, a saturation binding curve was obtained to determine KD values for the interaction between a fluorescent dimeric probe and PDZ1-2 of PSD-95. Increasing concentrations of PDZ1-2 (0.015-30 nM) were added to a constant concentration of the probe (0.5 nM). The fluorescence polarization (FP) of the sample was measured at excitation/emission wavelength of 635/670 nm and the generated FP values were fitted to a one site binding model using the software GraphPad Prism. […] The FP values were fitted to a one site competition (variable slope) model in GraphPad prism. The resulting IC50 values were converted to Ki values as described previously by Nikolovska-Coleska et al., Anal. Biochem., 2004, 332, 261).

[4] = dimeric ligands fused to L-TAT and L-Arg9, n ≥ 3 (Table 5, FIG. 2)
[5] = isolated enzyme plasmin, read-out: T1/2
[6] = NPEG4-(KETLV)2 fused to polyArg CPP-tags, n ≥ 3 (Table 7, FIG. 4)

T1 sequence (P00747 581-810 limits assumed, species assumed): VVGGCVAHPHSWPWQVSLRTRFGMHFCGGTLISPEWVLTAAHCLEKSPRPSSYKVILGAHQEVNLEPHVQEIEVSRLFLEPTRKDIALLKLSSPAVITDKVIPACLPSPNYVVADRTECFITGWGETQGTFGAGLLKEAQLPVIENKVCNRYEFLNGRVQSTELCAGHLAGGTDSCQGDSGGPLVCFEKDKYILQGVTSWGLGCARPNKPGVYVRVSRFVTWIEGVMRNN
T1 sequence (P00747 97-580 partner limits assumed, species assumed): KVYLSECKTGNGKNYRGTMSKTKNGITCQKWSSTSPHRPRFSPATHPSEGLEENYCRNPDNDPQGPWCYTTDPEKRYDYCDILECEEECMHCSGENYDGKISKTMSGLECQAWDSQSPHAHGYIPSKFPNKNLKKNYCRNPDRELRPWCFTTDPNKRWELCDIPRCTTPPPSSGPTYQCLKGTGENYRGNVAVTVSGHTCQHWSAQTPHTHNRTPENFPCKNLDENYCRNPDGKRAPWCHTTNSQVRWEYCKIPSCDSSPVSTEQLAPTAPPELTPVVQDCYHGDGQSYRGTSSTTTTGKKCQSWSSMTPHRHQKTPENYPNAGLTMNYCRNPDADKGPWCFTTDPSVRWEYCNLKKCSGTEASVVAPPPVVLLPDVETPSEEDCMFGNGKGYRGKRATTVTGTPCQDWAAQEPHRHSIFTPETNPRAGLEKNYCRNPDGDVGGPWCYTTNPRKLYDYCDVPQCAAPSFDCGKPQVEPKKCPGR
Sequence of PDZ1-2 of PSD-95 (P78352 61-249 limits assumed): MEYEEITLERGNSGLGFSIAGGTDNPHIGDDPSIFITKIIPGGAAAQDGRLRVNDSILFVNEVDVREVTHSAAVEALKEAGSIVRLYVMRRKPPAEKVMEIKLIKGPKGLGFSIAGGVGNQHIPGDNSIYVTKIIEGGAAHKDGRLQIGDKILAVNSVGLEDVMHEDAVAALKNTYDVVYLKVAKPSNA

Structure (SMILES) | T1/2 [2] [h] | Ki [3, 4] [µM] | half-life [1, 5] [h] | further results
CC[C@H](C)[C@H](NC(=O)CCOCCOCCN(CCOCCOCCC(=O)N[C@H](C(=O)N[C@@H](CCC(=O)O)C(=O)N[C@H](C(=O)N[C@@H](CC(=O)O)C(=O)N[C@H](C(=O)O)C(C)C)[C@@H](C)O)[C@@H](C)CC)C(=O)[C@H](CCCNC(=N)N)NC(=O)[C@H](CCCNC(=N)N)NC(=O)[C@H](CCCNC(=N)N)NC(=O)[C@H](CCC(N)=O)NC(=O)[C@H](CCCNC(=N)N)NC(=O)[C@H](CCCNC(=N)N)NC(=O)[C@H](CCCCN)NC(=O)[C@H](CCCCN)NC(=O)[C@H](CCCNC(=N)N)NC(=O)CNC(=O)[C@@H](N)Cc1ccc(O)cc1)C(=O)N[C@@H](CCC(=O)O)C(=O)N[C@H](C(=O)N[C@@H](CC(=O)O)C(=O)N[C@H](C(=O)O)C(C)C)[C@@H](C)O [Compound 8, L-TAT-NPEG4(IETDV)2, reference compound] | 24 ± 0 |  |  | half-life at 100 μM ([1]; plasmin (5 μg/mL) in PBS, read-out: T1/2): 9.05 ± 1 h
CC(=O)N[C@@H](Cc1ccc(O)cc1)C(=O)NCC(=O)N[C@@H](CCCNC(=N)N)C(=O)N[C@@H](CCCCN)C(=O)N[C@@H](CCCCN)C(=O)N[C@@H](CCCNC(=N)N)C(=O)N[C@@H](CCCNC(=N)N)C(=O)N[C@@H](CCC(N)=O)C(=O)N[C@@H](CCCNC(=N)N)C(=O)N[C@@H](CCCNC(=N)N)C(=O)N[C@@H](CCCNC(=N)N)C(=O)N(CCOCCOCCC(=O)N[C@@H](CCCCN)C(=O)N[C@@H](CCC(=O)O)C(=O)N[C@H](C(=O)N[C@@H](CCCNC(=N)N)C(=O)N[C@H](C(=O)O)C(C)C)[C@@H](C)O)CCOCCOCCC(=O)N[C@@H](CCCCN)C(=O)N[C@@H](CCC(=O)O)C(=O)N[C@H](C(=O)N[C@@H](CCCNC(=N)N)C(=O)N[C@H](C(=O)O)C(C)C)[C@@H](C)O [Compound 17] |  | 0.0066 ± 0.0006 | 6.42 ± 2.17 | 
CC[C@H](C)[C@H](NC(=O)CCOCCOCCN(CCOCCOCCC(=O)N[C@H](C(=O)N[C@@H](CO)C(=O)N[C@H](C(=O)N[C@@H](CC(=O)O)C(=O)N[C@H](C(=O)O)C(C)C)[C@@H](C)O)[C@@H](C)CC)C(=O)[C@H](CCCNC(=N)N)NC(=O)[C@H](CCCNC(=N)N)NC(=O)[C@H](CCCNC(=N)N)NC(=O)[C@H](CCC(N)=O)NC(=O)[C@H](CCCNC(=N)N)NC(=O)[C@H](CCCNC(=N)N)NC(=O)[C@H](CCCCN)NC(=O)[C@H](CCCCN)NC(=O)[C@H](CCCNC(=N)N)NC(=O)CNC(=O)[C@H](Cc1ccc(O)cc1)NC(C)=O)C(=O)N[C@@H](CO)C(=O)N[C@H](C(=O)N[C@@H](CC(=O)O)C(=O)N[C@H](C(=O)O)C(C)C)[C@@H](C)O [Compound 19] |  | 0.0361 ± 0.0018 | 8.9 ± 0.667 | 
CC(=O)N[C@@H](Cc1ccc(O)cc1)C(=O)NCC(=O)N[C@@H](CCCNC(=N)N)C(=O)N[C@@H](CCCCN)C(=O)N[C@@H](CCCCN)C(=O)N[C@@H](CCCNC(=N)N)C(=O)N[C@@H](CCCNC(=N)N)C(=O)N[C@@H](CCC(N)=O)C(=O)N[C@@H](CCCNC(=N)N)C(=O)N[C@@H](CCCNC(=N)N)C(=O)N[C@@H](CCCNC(=N)N)C(=O)N(CCOCCOCCC(=O)N[C@H](C(=O)N[C@@H](CCC(=O)O)C(=O)N[C@H](C(=O)N[C@H](C(=O)N[C@H](C(=O)O)C(C)C)C(C)C)[C@@H](C)O)C(C)C)CCOCCOCCC(=O)N[C@H](C(=O)N[C@@H](CCC(=O)O)C(=O)N[C@H](C(=O)N[C@H](C(=O)N[C@H](C(=O)O)C(C)C)C(C)C)[C@@H](C)O)C(C)C [Compound 21] |  | 0.0158 ± 0.0016 | 8.87 ± 0.683 | 
CC(=O)N[C@@H](CCCNC(=N)N)C(=O)N[C@@H](CCCNC(=N)N)C(=O)N[C@@H](CCCNC(=N)N)C(=O)N[C@@H](CCCNC(=N)N)C(=O)N[C@@H](CCCNC(=N)N)C(=O)N[C@@H](CCCNC(=N)N)C(=O)N[C@@H](CCCNC(=N)N)C(=O)N[C@@H](CCCNC(=N)N)C(=O)N[C@@H](CCCNC(=N)N)C(=O)N(CCOCCOCCC(=O)N[C@@H](CCCCN)C(=O)N[C@@H](CCC(=O)O)C(=O)N[C@H](C(=O)N[C@@H](CC(C)C)C(=O)N[C@H](C(=O)O)C(C)C)[C@@H](C)O)CCOCCOCCC(=O)N[C@@H](CCCCN)C(=O)N[C@@H](CCC(=O)O)C(=O)N[C@H](C(=O)N[C@@H](CC(C)C)C(=O)N[C@H](C(=O)O)C(C)C)[C@@H](C)O [Compound 23] | 24 ± 0 |  |  | half-life at 100 μM ([1]; isolated enzyme plasmin): 43.6 ± 4.6 h
CC(=O)N[C@@H](CCCNC(=N)N)C(=O)N[C@@H](CCCNC(=N)N)C(=O)N[C@@H](CCCNC(=N)N)C(=O)N[C@@H](CCCNC(=N)N)C(=O)N[C@@H](CCCNC(=N)N)C(=O)N(CCOCCOCCC(=O)N[C@@H](CCCCN)C(=O)N[C@@H](CCC(=O)O)C(=O)N[C@H](C(=O)N[C@@H](CC(C)C)C(=O)N[C@H](C(=O)O)C(C)C)[C@@H](C)O)CCOCCOCCC(=O)N[C@@H](CCCCN)C(=O)N[C@@H](CCC(=O)O)C(=O)N[C@H](C(=O)N[C@@H](CC(C)C)C(=O)N[C@H](C(=O)O)C(C)C)[C@@H](C)O [Compound 71] |  |  |  | half-life at 100 μM [2]: 21.1 ± 2.3 h
CC(=O)N[C@@H](CCCNC(=N)N)C(=O)N[C@@H](CCCNC(=N)N)C(=O)N[C@@H](CCCNC(=N)N)C(=O)N[C@@H](CCCNC(=N)N)C(=O)N(CCOCCOCCC(=O)N[C@@H](CCCCN)C(=O)N[C@@H](CCC(=O)O)C(=O)N[C@H](C(=O)N[C@@H](CC(C)C)C(=O)N[C@H](C(=O)O)C(C)C)[C@@H](C)O)CCOCCOCCC(=O)N[C@@H](CCCCN)C(=O)N[C@@H](CCC(=O)O)C(=O)N[C@H](C(=O)N[C@@H](CC(C)C)C(=O)N[C@H](C(=O)O)C(C)C)[C@@H](C)O [Compound 73] |  |  |  | Ki [3, 6]: 0.0111 ± 0.0009 µM; half-life at 100 μM [2]: 15.2 ± 3.6 h

Now from value to molecule, other results behind:

T1/2 [2] [h] | Structure (SMILES) | Ki [3, 4] [µM] | half-life [1, 5] [h] | further results
24 ± 0 | CC[C@H](C)[C@H](NC(=O)CCOCCOCCN(CCOCCOCCC(=O)N[C@H](C(=O)N[C@@H](CCC(=O)O)C(=O)N[C@H](C(=O)N[C@@H](CC(=O)O)C(=O)N[C@H](C(=O)O)C(C)C)[C@@H](C)O)[C@@H](C)CC)C(=O)[C@H](CCCNC(=N)N)NC(=O)[C@H](CCCNC(=N)N)NC(=O)[C@H](CCCNC(=N)N)NC(=O)[C@H](CCCNC(=N)N)NC(=O)[C@H](CCCNC(=N)N)NC(=O)[C@H](CCCNC(=N)N)NC(=O)[C@H](CCCNC(=N)N)NC(=O)[C@H](CCCNC(=N)N)NC(=O)[C@H](CCCNC(=N)N)NC(C)=O)C(=O)N[C@@H](CCC(=O)O)C(=O)N[C@H](C(=O)N[C@@H](CC(=O)O)C(=O)N[C@H](C(=O)O)C(C)C)[C@@H](C)O [Compound 35] |  |  | half-life at 100 μM [1]: 24.9 ± 1.9 h; half-life at 100 μM ([1]; isolated enzyme plasmin): 24.9 ± 1.9 h
24 ± 0 | CC(=O)N[C@@H](CCCNC(=N)N)C(=O)N[C@@H](CCCNC(=N)N)C(=O)N[C@@H](CCCNC(=N)N)C(=O)N[C@@H](CCCNC(=N)N)C(=O)N[C@@H](CCCNC(=N)N)C(=O)N[C@@H](CCCNC(=N)N)C(=O)N[C@@H](CCCNC(=N)N)C(=O)N(CCOCCOCCC(=O)N[C@@H](CCCCN)C(=O)N[C@@H](CCC(=O)O)C(=O)N[C@H](C(=O)N[C@@H](CC(C)C)C(=O)N[C@H](C(=O)O)C(C)C)[C@@H](C)O)CCOCCOCCC(=O)N[C@@H](CCCCN)C(=O)N[C@@H](CCC(=O)O)C(=O)N[C@H](C(=O)N[C@@H](CC(C)C)C(=O)N[C@H](C(=O)O)C(C)C)[C@@H](C)O [Compound 67] |  |  | 
24 ± 0 | CC(=O)N[C@@H](CCCNC(=N)N)C(=O)N[C@@H](CCCNC(=N)N)C(=O)N[C@@H](CCCNC(=N)N)C(=O)N[C@@H](CCCNC(=N)N)C(=O)N[C@@H](CCCNC(=N)N)C(=O)N[C@@H](CCCNC(=N)N)C(=O)N(CCOCCOCCC(=O)N[C@@H](CCCCN)C(=O)N[C@@H](CCC(=O)O)C(=O)N[C@H](C(=O)N[C@@H](CC(C)C)C(=O)N[C@H](C(=O)O)C(C)C)[C@@H](C)O)CCOCCOCCC(=O)N[C@@H](CCCCN)C(=O)N[C@@H](CCC(=O)O)C(=O)N[C@H](C(=O)N[C@@H](CC(C)C)C(=O)N[C@H](C(=O)O)C(C)C)[C@@H](C)O [Compound 69] |  |  | Ki [3, 6]: 0.0086 ± 0.0003 µM
